Earlier results, collected in patent US7413751B2, “Methods of treatment using a gastric retained losartan dosage” (Depomed, Inc., priority 2001, dated 2008).
Read-outs that look alike come from different tables or passages of the source.

What was measured:
[1] = tested on: diastolic pressure response to angiotensin II

half-life (Japanese patients tested) [h] | half-life (in vivo) [h] | tmax (in vivo) [h] | SMILES | effects at 24 hours ([1]; 25 mg dosage) | effects at 24 hours ([1]; 50 mg and 100 mg dosages) | peak:trough blood pressure ratio (5-6 hours after dosing: 24 hours after dosing) ([1]; 50 mg dosage) [%] | peak:trough blood pressure ratio (5-6 hours after dosing: 24 hours after dosing) ([1]; 100 mg dosage) [%] | blockade of the diastolic pressure response to angiotensin II ([1]; 24 hours after dosing)
4 to 5 | 6 to 9 | 2 to 4 | CCCCc1nc(Cl)c(C(=O)O)n1Cc1ccc(-c2ccccc2-c2nn[nH]n2)cc1 [active metabolite of losartan potassium] | – | – | – | – | –
– | – | – | CCCCc1nc(Cl)c(CO)n1Cc1ccc(-c2ccccc2-c2nnn[nH]2)cc1.[K] [losartan potassium, 2-butyl-4-chloro-1[p-(o-1H-tetrazol-5-ylphenyl)benzyl]imidazole-5-methanol monopotassium salt] | not | observed | 60 | 72 | approximately 30%
